Like-named read-outs stand apart in the source and are kept apart here.
Tests used:
[1] = target: T1, FGF14:Nav1.6 C-tail complex (Homo sapiens, UniProt Q92915+Q9UQD0); assay: Split-luciferase complementation assay (LCA) in Clone V double stable HEK293 cells; assay type: cell-based; details: for Z-score (LCA primary screening): 30 µM, average of primary screening (n = 2), vs on-plate 0.3% DMSO; for Z-score (LCA primary screening) / IMin (% Luminescence) / EMax (% Luminescence): 384-well; for IMin (% Luminescence): antagonists; for IMin (% Luminescence) / EMax (% Luminescence): normalized to DMSO; for EMax (% Luminescence): agonists; for EC50: read-out: EC50
T1 construct: polymerase chain reaction (PCR) amplification of the FGF14 open reading frame (nt 1–855); C-terminal fragment of Nav1.6 (amino acids 1763–1976) fused with CD4ΔC-tail (amino acids 1–395); expressed in transfected cells
T1 sequence (Q92915 1-252 isoform Q92915-2): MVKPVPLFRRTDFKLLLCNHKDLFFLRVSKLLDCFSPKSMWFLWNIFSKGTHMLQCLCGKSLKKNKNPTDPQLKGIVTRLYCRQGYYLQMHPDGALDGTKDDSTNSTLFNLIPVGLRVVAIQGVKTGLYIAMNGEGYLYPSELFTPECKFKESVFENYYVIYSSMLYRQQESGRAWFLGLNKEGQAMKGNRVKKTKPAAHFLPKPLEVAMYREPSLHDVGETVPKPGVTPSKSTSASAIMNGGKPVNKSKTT
T1 sequence (Q9UQD0 1763-1976 limits assumed): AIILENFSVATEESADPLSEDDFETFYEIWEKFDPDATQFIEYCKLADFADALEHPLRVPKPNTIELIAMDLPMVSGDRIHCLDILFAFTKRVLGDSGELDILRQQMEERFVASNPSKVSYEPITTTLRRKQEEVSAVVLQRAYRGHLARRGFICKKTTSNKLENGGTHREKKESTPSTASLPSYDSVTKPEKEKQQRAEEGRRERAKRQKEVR

[2] = target: full-length P. pyralis luciferase (Photinus pyralis, UniProt P08659, K549A/L550V/N119G/N50D/S548I); assay type: cell-based
Sequence of full-length P. pyralis luciferase (P08659 whole entry N50D/N119G/S548I/K549A/L550V, looked up): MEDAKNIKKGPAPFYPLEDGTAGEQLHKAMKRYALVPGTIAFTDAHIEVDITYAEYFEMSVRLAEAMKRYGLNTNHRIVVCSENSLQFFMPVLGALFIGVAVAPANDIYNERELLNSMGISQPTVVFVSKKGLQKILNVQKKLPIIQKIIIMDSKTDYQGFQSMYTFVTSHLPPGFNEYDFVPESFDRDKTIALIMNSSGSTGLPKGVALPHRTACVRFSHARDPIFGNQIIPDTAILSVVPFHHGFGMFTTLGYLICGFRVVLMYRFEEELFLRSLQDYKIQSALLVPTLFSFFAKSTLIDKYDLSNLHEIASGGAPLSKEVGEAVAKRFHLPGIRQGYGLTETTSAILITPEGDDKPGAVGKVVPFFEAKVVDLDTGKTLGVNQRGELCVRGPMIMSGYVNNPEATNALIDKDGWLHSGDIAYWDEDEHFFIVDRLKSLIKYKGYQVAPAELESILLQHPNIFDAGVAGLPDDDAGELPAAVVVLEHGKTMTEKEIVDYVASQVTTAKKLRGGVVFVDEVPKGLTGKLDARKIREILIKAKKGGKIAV

[3] = tested on: Clone V cells
[4] = CC_NCI screening, LCA luminescence, biological replicate Set 1, normalized to on-plate 0.3% DMSO controls (n=16 per plate)
[5] = CC_NCI screening, LCA luminescence, biological replicate Set 2, normalized to on-plate 0.3% DMSO controls (n=16 per plate)
[6] = CC_NCI screening, LCA, biological replicate Set 1, normalized to on-plate 0.3% DMSO controls
[7] = CC_NCI screening, LCA, biological replicate Set 2, normalized to on-plate 0.3% DMSO controls
[8] = CC_NCI screening, average of Set 1 and Set 2, normalized to 0.3% DMSO controls
[9] = CC_NCI screening, full-length luciferase counter-screen luminescence, normalized to on-plate 0.3% DMSO controls
[10] = CC_NCI screening, full-length luciferase counter-screen, normalized to on-plate 0.3% DMSO controls
[11] = CC_NCI screening, biological replicate Set 1, normalized to on-plate 0.3% DMSO controls
[12] = CC_NCI screening, biological replicate Set 1, normalized to on-plate 0.3% DMSO controls (n=16 per plate)
[13] = CC_NCI screening, biological replicate Set 2, normalized to on-plate 0.3% DMSO controls
[14] = CC_NCI screening, biological replicate Set 2, normalized to on-plate 0.3% DMSO controls (n=16 per plate)
[15] = average of Set 1 and Set 2, normalized to 0.3% DMSO controls
[16] = CC_NCI screening, normalized to on-plate 0.3% DMSO controls
[17] = estimated, 8-point dose response 0.25-30 µM, n = 4 per concentration, library compounds, read-out: IC50
[18] = estimated, 8-point dose response 0.25-30 µM, n = 4 per concentration, library compounds

CCCCCCCCCCCCSc1nc2c([nH]1)c(=O)n(C)c(=O)n2C
Split Luciferase Assay % Lum Set 1 [1, 4]: 112.30% | Split Luciferase Assay %Lum Set 2 [1, 5]: 118.60% | Split Luciferase Assay Z-score Set 1 [1, 6]: 0.99 | Split Luciferase Assay Z-score Set 2 [1, 7]: 1.51 | Split Luciferase Assay %Lum Avg [1, 8]: 115.45% | Luciferase Assay % Lum [2, 9]: 103.16% | Luciferase Assay Z-score [2, 10]: 0.40 | Toxicity Assay % Fluor [3]: 93.89% | Toxicity Assay Z-score [3]: -0.85

NS(=O)(=O)c1nn2cc(-c3ccccc3)nc2s1 [AEG 3482]
Split Luciferase Assay Z-score Set 1 [1, 11]: 1.78 | Split Luciferase Assay % Lum Set 1 [1, 12]: 122.08% | Split Luciferase Assay Z-score Set 2 [1, 13]: 1.09 | Split Luciferase Assay %Lum Set 2 [1, 14]: 113.39% | Split Luciferase Assay %Lum Avg [1, 15]: 117.74% | Luciferase Assay % Lum (full-length luciferase counter-screen) [2, 16]: 93.96% | Luciferase Assay Z-score (full-length luciferase counter-screen) [2, 16]: -0.77 | Toxicity Assay % Fluor (CTB cell viability fluorescence) [3]: 105.28% | Toxicity Assay Z-score (CTB cell viability) [3]: 0.74

N#C/C(=C/c1ccc(O)c(O)c1)C(=O)NCc1ccccc1 [AG 490]
Split Luciferase Assay % Lum Set 1 [1, 4]: 118.82% | Split Luciferase Assay %Lum Set 2 [1, 5]: 120.68% | Split Luciferase Assay Z-score Set 1 [1, 6]: 1.52 | Split Luciferase Assay Z-score Set 2 [1, 7]: 1.68 | Split Luciferase Assay %Lum Avg [1, 8]: 119.75% | Luciferase Assay % Lum [2, 9]: 85.62% | Luciferase Assay Z-score [2, 10]: -1.84 | Toxicity Assay % Fluor [3]: 89.42% | Toxicity Assay Z-score [3]: -1.48

NC(=O)c1ccc2nc(-c3ccc(Oc4ccc(Cl)cc4)cc3)[nH]c2c1 [CHK2 INHIBITOR II]
Toxicity Assay % Fluor (CTB cell viability fluorescence) [3]: 112.91% | Toxicity Assay Z-score (CTB cell viability) [3]: 1.80

O=c1cc(N2CCOCC2)nc2c3ccccc3ccn12 [COMPOUND 401]
Split Luciferase Assay Z-score Set 1 [1, 11]: -0.15 | Split Luciferase Assay % Lum Set 1 [1, 12]: 98.17% | Split Luciferase Assay Z-score Set 2 [1, 13]: -0.43 | Split Luciferase Assay %Lum Set 2 [1, 14]: 94.67% | Split Luciferase Assay %Lum Avg [1, 15]: 96.42% | Luciferase Assay % Lum (full-length luciferase counter-screen) [2, 16]: 93.50% | Luciferase Assay Z-score (full-length luciferase counter-screen) [2, 16]: -0.83

N.N.[Cl][Pt][Cl] [Cisplatin]
Split Luciferase Assay % Lum Set 1 [1, 4]: 89.47% | Split Luciferase Assay %Lum Set 2 [1, 5]: 98.83% | Split Luciferase Assay Z-score Set 1 [1, 6]: -0.85 | Split Luciferase Assay Z-score Set 2 [1, 7]: -0.10 | Split Luciferase Assay %Lum Avg [1, 8]: 94.15% | Luciferase Assay % Lum [2, 9]: 99.37% | Luciferase Assay Z-score [2, 10]: -0.08

CS(=O)(=O)N1CCN(Cc2cc3nc(-c4cccc5[nH]ncc45)nc(N4CCOCC4)c3s2)CC1 [GDC 0941]
Luciferase Assay % Lum (full-length luciferase counter-screen) [2, 16]: 84.36% | Luciferase Assay Z-score (full-length luciferase counter-screen) [2, 16]: -2.00

CCn1c(-c2nonc2N)nc2cnc(Oc3cccc(NC(=O)c4ccc(OCCN5CCOCC5)cc4)c3)cc21 [GSK 269962 A, reference compound]
Z-score (LCA primary screening) [1]: −5.77 | IMin (% Luminescence) ([1]; Clone V cells): 28.81 % Luminescence | IC50 [1, 17]: 24.7 µM

Cc1ccc(NC(=O)c2ccc(CN3CCN(C)CC3)cc2)cc1Nc1nccc(-c2cccnc2)n1 [Imatinib]
Luciferase Assay % Lum [2]: 90.17% | Luciferase Assay Z-score [2]: -1.26

CCc1c2c(nc3ccc(OC(=O)N4CCC(N5CCCCC5)CC4)cc13)-c1cc3c(c(=O)n1C2)COC(=O)[C@]3(O)CC.Cl [Irinotecan hydrochloride]
Luciferase Assay % Lum [2, 9]: 96.04% | Luciferase Assay Z-score [2, 10]: -0.51

O=[N+]([O-])/C=C/c1ccc2c(c1)OCO2 [MNS, reference compound]
IC50 ([1]; 384-well plates, range 0.625 - 25 μM, n=16 per concentration (Supplementary Fig. S1A), read-out: Estimated IC50): 13.3 µM | % luminescence (normalized mean and SD) ([1]; MNS 30 µM, Clone V cells, 96-well plates): 10.8% ± 3.1% | IC50 ([1]; cell density 1 × 10^4 cells per 384-well, 8 concentrations 0.625-30 µM, read-out: IC50): 3.96 µM | IC50 ([1]; cell density 2 × 10^4 cells per 384-well, 8 concentrations 0.625-30 µM, read-out: IC50): 7.49 µM | IC50 ([1]; cell density 3 × 10^4 cells per 384-well, 8 concentrations 0.625-30 µM, read-out: IC50): 9.82 µM | IC50 ([1]; cell density 4 × 10^4 cells per 384-well, 8 concentrations 0.625-30 µM, read-out: IC50): 13.3 µM | % maximal luminescence, full-length luciferase (normalized mean and SD) ([2]; MNS 30 µM, 96-well plates): 96.8% ± 2.8%

O=C(NOC[C@H](O)CO)c1ccc(F)c(F)c1Nc1ccc(I)cc1F [PD 0325901]
Toxicity Assay % Fluor ([3]; human, 16 h, 30 µM): 83.92% | Toxicity Assay Z-score ([3]; human, 16 h, 30 µM): -2.25

CNC(=O)c1cc(Oc2ccc(NC(=O)Nc3ccc(Cl)c(C(F)(F)F)c3)cc2)ccn1 [Sorafenib, reference compound]
Z-score (LCA primary screening) [1]: −7.62 | Split Luciferase Assay % Lum Set 1 [1, 4]: 5.76% | Split Luciferase Assay % Lum Set 1 ([1]; CC_NCI screening, LCA luminescence, biological replicate Set 1, normalized to on-plate 0.3% DMSO controls (n=16 per plate), listed as SORAFENIB): 4.67% | Split Luciferase Assay %Lum Set 2 [1, 5]: 15.60% | Split Luciferase Assay %Lum Set 2 ([1]; CC_NCI screening, LCA luminescence, biological replicate Set 2, normalized to on-plate 0.3% DMSO controls (n=16 per plate), listed as SORAFENIB): 7.28% | Split Luciferase Assay Z-score Set 1 [1, 6]: -7.62 | Split Luciferase Assay Z-score Set 1 ([1]; CC_NCI screening, LCA, biological replicate Set 1, normalized to on-plate 0.3% DMSO controls, listed as SORAFENIB): -7.70 | Split Luciferase Assay Z-score Set 2 [1, 7]: -6.87 | Split Luciferase Assay Z-score Set 2 ([1]; CC_NCI screening, LCA, biological replicate Set 2, normalized to on-plate 0.3% DMSO controls, listed as SORAFENIB): -7.54 | Split Luciferase Assay %Lum Avg [1, 8]: 10.68% | Split Luciferase Assay %Lum Avg ([1]; CC_NCI screening, average of Set 1 and Set 2, normalized to 0.3% DMSO controls, listed as SORAFENIB): 5.98% | IMin (% Luminescence) ([1]; Clone V cells): 5.98 % Luminescence | IC50 [1, 17]: 3.98 µM | Luciferase Assay % Lum [2, 9]: 88.55% | Luciferase Assay % Lum ([2]; CC_NCI screening, full-length luciferase counter-screen luminescence, normalized to on-plate 0.3% DMSO controls, listed as SORAFENIB): 91.34% | Luciferase Assay Z-score [2, 10]: -1.47 | Luciferase Assay Z-score ([2]; CC_NCI screening, full-length luciferase counter-screen, normalized to on-plate 0.3% DMSO controls, listed as SORAFENIB): -1.11

CCN(CC)CCNC(=O)c1c(C)[nH]c(/C=C2\C(=O)Nc3ccc(F)cc32)c1C [Sunitinib]
Split Luciferase Assay % Lum Set 1 [1, 4]: 68.81% | Split Luciferase Assay %Lum Set 2 [1, 5]: 72.82% | Split Luciferase Assay Z-score Set 1 [1, 6]: -2.52 | Split Luciferase Assay Z-score Set 2 [1, 7]: -2.21 | Split Luciferase Assay %Lum Avg [1, 8]: 70.82% | Luciferase Assay % Lum [2, 9]: 95.10% | Luciferase Assay Z-score [2, 10]: -0.63

COc1cc2c(N3CCN(C(=O)Nc4ccc(OC(C)C)cc4)CC3)ncnc2cc1OCCCN1CCCCC1 [TANDUTINIB]
Split Luciferase Assay % Lum Set 1 [1, 4]: 92.73% | Split Luciferase Assay %Lum Set 2 [1, 5]: 92.59% | Split Luciferase Assay Z-score Set 1 [1, 6]: -0.59 | Split Luciferase Assay Z-score Set 2 [1, 7]: -0.60 | Split Luciferase Assay %Lum Avg [1, 8]: 92.66% | Luciferase Assay % Lum [2, 9]: 88.98% | Luciferase Assay Z-score [2, 10]: -1.41

Oc1ncc(N(CCCl)CCCl)c(O)n1 [Uracil mustard]
Split Luciferase Assay % Lum Set 1 [1]: 76.42% | Split Luciferase Assay %Lum Avg [1]: 74.62% | Split Luciferase Assay %Lum Set 2 [1]: 72.82% | Split Luciferase Assay Z-score Set 1 [1]: -1.91 | Split Luciferase Assay Z-score Set 2 [1]: -2.21 | Luciferase Assay % Lum [2]: 97.98% | Luciferase Assay Z-score [2]: -0.26

CC[C@]1(O)C[C@@H]2CN(CCc3c([nH]c4ccccc34)[C@@](C(=O)OC)(c3cc4c(cc3OC)N(C)[C@H]3[C@@](O)(C(=O)OC)[C@H](OC(C)=O)[C@]5(CC)C=CCN6CC[C@]43[C@@H]65)C2)C1 [Vinblastine, reference compound]
Z-score (LCA primary screening) [1]: 7.42 | EMax (% Luminescence) ([1]; Clone V cells): 191.58 % Luminescence | EC50 [1, 18]: 20.6 µM

CC[C@]1(O)C[C@H]2CN(CCc3c([nH]c4ccccc34)[C@@](C(=O)OC)(c3cc4c(cc3OC)N(C=O)[C@H]3[C@@](O)(C(=O)OC)[C@H](OC(C)=O)[C@]5(CC)C=CCN6CC[C@]43[C@@H]65)C2)C1 [Vincristine, reference compound]
Z-score (LCA primary screening) [1]: 7.99 | EMax (% Luminescence) ([1]; Clone V cells): 198.49 % Luminescence | EC50 [1, 18]: 0.27 µM

CCC1=C[C@@H]2CN(C1)Cc1c([nH]c3ccccc13)[C@@](C(=O)OC)(c1cc3c(cc1OC)N(C)[C@H]1[C@@](O)(C(=O)OC)[C@H](OC(C)=O)[C@]4(CC)C=CCN5CC[C@]31[C@@H]54)C2 [Vinorelbine, reference compound]
Z-score (LCA primary screening) [1]: 8.79 | EMax (% Luminescence) ([1]; Clone V cells): 208.53 % Luminescence | EC50 [1, 18]: 1.55 µM

Plicamycin
Split Luciferase Assay Z-score Set 1 [1, 11]: -1.20 | Split Luciferase Assay % Lum Set 1 [1, 12]: 85.12% | Split Luciferase Assay Z-score Set 2 [1, 13]: -1.11 | Split Luciferase Assay %Lum Set 2 [1, 14]: 86.35% | Split Luciferase Assay %Lum Avg [1, 15]: 85.73% | Luciferase Assay % Lum (full-length luciferase counter-screen) [2, 16]: 92.59% | Luciferase Assay Z-score (full-length luciferase counter-screen) [2, 16]: -0.95

Source: article PMC6858373 (Scientific Reports, 2019)
